{"source": "patent US20260365618A1", "about": "(priority 2022, published 2026)", "key": {"[1]": {"tested_on": "F. tularensis subsp. tularensis", "assay": "microbe, parasite or virus in culture", "type": "cell-based, Francisella tularensis subsp. tularensis"}, "[2]": {"tested_on": "F. tularensis subsp. novicida", "type": "cell-based, Francisella tularensis subsp. novicida"}, "F. tularensis, total": {"tested_on": "F. tularensis, total", "type": "cell-based, Francisella tularensis"}, "[3]": {"tested_on": "F. tularensis subsp. holarctica", "assay": "microbe, parasite or virus in culture", "type": "cell-based, Francisella tularensis subsp. holarctica"}, "[4]": {"tested_on": "F. tularensis subsp. tularensis strain SchuS4", "design": "species or system mice", "settings": "mouse"}, "[5]": {"tested_on": "F. tularensis subsp. tularensis strain SchuS4", "type": "in vivo, mice"}}, "note": "Several values for one entry are separate records, joined by “and”; a condition that tells them apart may be missing. Identical values can stand only once. Entries after “also recorded” stand apart in the source; their conditions may differ. Like-named read-outs stand apart in the source and are kept apart here."}
{"molecule": "CC[C@H]1OC(=O)[C@H](C)[C@@H](O[C@H]2C[C@@](C)(OC)[C@@H](O)[C@H](C)O2)[C@H](C)[C@@H](O[C@@H]2O[C@H](C)C[C@H](N(C)C)[C@H]2O)[C@](C)(O)C[C@@H](C)C(=O)[C@H](C)[C@@H](O)[C@]1(C)O", "note": "[Erythromycin]", "values": [{"measurement": "in vitro activity (in words)", "setting": "[1]", "value": "slightly weaker activity"}, {"measurement": "activity (in words)", "setting": "[2]; subsp. novicida", "value": "inactive"}, {"measurement": "MIC", "setting": "[2]; subsp. novicida, N=1, CAMHB + 2% Isovitalex, 35 °C, 48 h", "value": "≥8", "unit": "µg/mL"}]}
{"molecule": "C=C[C@]1(C)C[C@@H](OC(=O)CS[C@@H]2CC[C@@H](N)C[C@H]2O)[C@]2(C)[C@H](C)CC[C@]3(CCC(=O)[C@H]32)[C@@H](C)[C@@H]1O", "note": "[Lefamulin, 14-O-{[(1R, 2R, 4R)-4-amino-2-hydroxy-cyclohexylsulfanyl]-acetyl}-mutilin]", "values": [{"measurement": "antimicrobial activity against F. tularensis (in words)", "setting": "F. tularensis, total", "value": "active in vitro and in vivo; also recorded: potent inhibition"}, {"measurement": "in vitro activity (in words)", "setting": "F. tularensis, total", "value": "potent in vitro activity"}, {"measurement": "in vitro activity (in words)", "setting": "[1]", "value": "surprisingly potent activity"}, {"measurement": "MIC", "setting": "[1]; Francisella tularensis, read-out: concentration at which all subsp. tularensis isolates were inhibited", "value": "≤ 4", "unit": "µg/mL"}, {"measurement": "activity / MIC values compared with subsp. tularensis (in words)", "setting": "[3]", "value": "slightly higher"}, {"measurement": "activity (in words)", "setting": "[2]", "value": "Potent activity"}, {"measurement": "efficacy in the murine in vivo model (in words)", "setting": "[4]", "value": "comparable efficacy"}, {"measurement": "animals surviving until day 45", "setting": "[4]; in vivo", "value": "one"}, {"measurement": "effect of oral treatment on survival (in words)", "setting": "[4]; in vivo", "value": "effective in prolonging the survival"}, {"measurement": "mortality 5 days after the last treatment", "setting": "[4]; in vivo", "value": "~100", "unit": "%"}, {"measurement": "survival by the end of treatment (Day 15)", "setting": "[4]; in vivo", "value": "100% and 90%"}, {"measurement": "bacterial load in spleen", "setting": "[5]; animals surviving until day 45 (ciprofloxacin: average of two; Lefamulin: one), spleen", "value": "7.7×10^6 CFU/g"}, {"measurement": "bacterial load in lung", "setting": "[5]; one remaining Lefamulin-treated animal, day 45, lung", "value": "1.3×10^6 CFU/g"}]}
